Laboratory results as given in patent publication US12226458B2, “System for providing an up-to-date and long-acting or ultra-long-acting insulin dose guidance recommendation to treat diabetes mellitus” (Novo Nordisk A/S, priority 2018, dated 2025).

What was measured:
[1] = system: insulin-naïve subjects with type 2 diabetes; assay: BEGIN ONCE SIMPLE USE 26-week randomized treat-to-target trial: HbA1c / glycemic control; format: in vivo, human; conditions: for HbA1c change from baseline to Week 26 / HbA1c at Week 26: IDeg OD + metformin; for Patients achieving HbA1c<7% without confirmed hypoglycemia / Subjects achieving HbA1c<7.0% at end-of-trial: 26 weeks
From the text: (§1) This 26-week, multi-center, open-label, randomized, treat-to-target study compared the efficacy and safety of IDeg administered once daily in combination with metformin in insulin-naïve subjects with type 2 diabetes using two different patient-driven titration algorithms: a “Simple” algorithm (IDegSimple), with dose adjustments based on one pre-breakfast SMBG measurement (N=111) versus a “Step-wise” algorithm (IDegStep-wise), with adjustments based on three consecutive pre-breakfast SMBG values (N=111). IDeg was administered using the FlexTouch® insulin pen (Novo Nordisk A/S, Bagsværd, Denmark), with once-weekly dose titration in both groups.
The study was conducted according to the Declaration of Helsinki (2008) and ICH Good Clinical Practice (1996) guidelines, with prior approval by appropriate ethics committees and patient consent obtained in writing prior to the start of any study-related activities. Eligible participants included insulin-naïve men or women ≥18 years of age, with type 2 diabetes, HbA1c 7.0-10.0% (inclusive), and body mass index (BMI) ≤45.0 kg/m^2, who were treated with ≥1000 mg/day metformin alone or in combination with one or two other oral antidiabetic medications (OADs) (including a sulfonylurea [SU] or glinide, dipeptidyl peptidase-4 [DPP-4] inhibitors, α-glucosidase inhibitors or thiazolidinediones [TZDs]), with unchanged dosing for ≥12 weeks prior to randomization. […] Subjects could be withdrawn from the trial due to withdrawal of consent, not fulfilling inclusion/exclusion criteria (randomized in error), non-compliance, or at the discretion of the investigator due to a safety concern. Subjects who were withdrawn after randomization were not to be replaced. This trial is registered at clinicaltrials.gov: NCT01326026.
(§2) HbA1c was analyzed using a Bio-Rad high-performance liquid chromatography method at Visits 1 (screening), 2 (randomization), 14 (Week 12) and 28 (Week 26). Fasting plasma glucose (FPG) blood samples were assayed using a hexokinase-UV method at Visits 2, 14 and 28. At the first visit, subjects were provided with a glucose meter for SMBG measurement and instructions for use; blood glucose was measured with test strips calibrated to plasma glucose to obtain PG-equivalent values presented in this report. Subjects performed SMBG measurements before breakfast weekly after randomization and also performed an 8-point SMBG profile prior to Visits 2, 14 and 28.

[2] = system: insulin-naïve subjects with type 2 diabetes; assay: BEGIN ONCE SIMPLE USE trial: fasting plasma glucose (hexokinase-UV); format: in vivo, human
From the text: as §1, §2

[3] = system: insulin-naïve subjects with type 2 diabetes; conditions: in vivo
From the text: This was a multinational (conducted in the US, Spain, Finland, and Germany), Phase 3b, multi-center, two-armed, parallel group, open-label, randomized, treat-to-target study that compared the efficacy and safety of IDeg OD [IDeg 100 U/mL, FlexTouch® pen, Novo Nordisk A/S, Bagsværd, Denmark], adjusted using two different titration algorithms in combination with metformin. The trial consisted of a 26-week period; total study duration was approximately 28 weeks (including 1 week for screening and a 7-day follow-up period). […]
Adverse events (AEs) and hypoglycemic episodes were documented throughout the study, with confirmed hypoglycemia defined as episodes of severe hypoglycemia (requiring assistance from another person) and episodes with PG value <3.1 mmol/L (56 mg/dL). […] Laboratory safety variables, insulin dose and body weight were recorded at pre-specified intervals.
Change from baseline in HbA1c after 26 weeks was analyzed using an analysis of variance (ANOVA) method with treatment, region, sex and antidiabetic therapy at screening as fixed factors, and age and baseline HbA1c as covariates. […] Change in FPG and change in body weight were analyzed using an ANOVA model similar to that used for the primary analysis, but with the relevant baseline value as covariate for each measure. […]

[4] = system: insulin-naïve subjects with type 2 diabetes; conditions: in vivo; remark: listed apart in the source
From the text: (§3) This was a multinational (conducted in the US, Spain, Finland, and Germany), Phase 3b, multi-center, two-armed, parallel group, open-label, randomized, treat-to-target study that compared the efficacy and safety of IDeg OD [IDeg 100 U/mL, FlexTouch® pen, Novo Nordisk A/S, Bagsværd, Denmark], adjusted using two different titration algorithms in combination with metformin. The trial consisted of a 26-week period; total study duration was approximately 28 weeks (including 1 week for screening and a 7-day follow-up period). After discontinuing all OADs other than metformin, subjects were randomized 1:1 by an interactive voice/web response system (IV/WRS) to IDegSimple or IDegStep-wise insulin self-titration algorithms, as defined below. Subjects were instructed to self-titrate in accordance with their respective algorithms and continue with their pre-trial metformin dose. At randomization, Week 4 and Week 12, subjects in both treatment arms received diet and exercise counselling by an HCP.
(§4) Adverse events (AEs) and hypoglycemic episodes were documented throughout the study, with confirmed hypoglycemia defined as episodes of severe hypoglycemia (requiring assistance from another person) and episodes with PG value <3.1 mmol/L (56 mg/dL). Nocturnal confirmed hypoglycemic episodes were those occurring between 00:01 h and 05:59 h (inclusive). Laboratory safety variables, insulin dose and body weight were recorded at pre-specified intervals.
(§5) Treatment-emergent AEs, hypoglycaemic episodes, laboratory parameters, physical examination, electrocardiogram (ECG), fundoscopy/fundusphotography, vital signs, PRO (Device-Specific questionnaires I and II) and insulin dose were summarized with descriptive statistics.
(§6) Treatment-emergent events occurring after first exposure and no later than 7 days after last exposure. Safety analysis set. n number of patients with events, % proportion of patients with events, E number of events, R number of events per 100 patient-years.

[5] = system: people with Type 2 diabetes; conditions: in vivo; cited from earlier work
[6] = system: insulin-naïve subjects with type 2 diabetes; assay: BEGIN ONCE SIMPLE USE trial: adverse events; conditions: IDegStep-wise arm; 154 days after starting trial drug, liver metastasis, considered unlikely related to treatment
From the text: as §3, §4, §5, §6

[7] = system: patients with type 2 diabetes; conditions: self-adjusted dose every 3 days from mean of previous 3 days' SMBG; 6 months; cited from earlier work
[8] = system: people with Type 2 diabetes; conditions: INSIGHT; initial dose 10 units, increased by 1 unit each day until FPG ≤5.5 mmol/liter; cited from earlier work

Substance: LysB29(Nε-hexadecandioyl-γ-Glu) des(B30) human insulin [IDeg]
- HbA1c change from baseline to Week 26 ([1]; IDegSimple arm (Simple titration algorithm)): −1.09%
- Patients achieving HbA1c<7% without confirmed hypoglycemia ([1]; IDegSimple arm): 40.6%
- Subjects achieving HbA1c<7.0% at end-of-trial ([1]; IDegSimple arm): 56.8%
- HbA1c at Week 26 ([1]; IDegSimple arm): 7.0%
- HbA1c change from baseline to Week 26 ([1]; IDegStep-wise arm (Step-wise titration algorithm)): −0.93%
- Patients achieving HbA1c<7% without confirmed hypoglycemia ([1]; IDegStep-wise arm): 34.6%
- Subjects achieving HbA1c<7.0% at end-of-trial ([1]; IDegStep-wise arm): 41.4%
- HbA1c at Week 26 ([1]; IDegStep-wise arm): 7.2%
- Estimated treatment difference (IDegSimple−IDegStep-wise) in HbA1c change ([1]; Week 26, 95% CI [−0.39, 0.07]): −0.16 %-points
- Non-inferiority of IDegSimple to IDegStep-wise in lowering HbA1c ([1]; Week 26, non-inferiority limit 0.4%): non-inferior
- Fasting plasma glucose at Week 26 ([2]; IDegSimple arm): 6.1 mmol/L
- Fasting plasma glucose at Week 26 ([2]; IDegStep-wise arm): 6.8 mmol/L
- Estimated treatment difference (IDegSimple−IDegStep-wise) in FPG ([2]; Week 26, 95% CI [−1.30, 0.17]): -0.57 mmol/L
- Severe hypoglycemic episodes [3]: One
- Headache: N number of patients with events [4]: 8
- SAE neoplasm event [4]: astrocytoma
- SAEs: E number of events [4]: 8
- SAEs: R number of events per 100 patient-years [4]: 15 events per 100 patient-years
- Confirmed and nocturnal confirmed hypoglycemia rates with IDeg OD versus comparator insulin glargine [5]: lower than or similar to
- Deaths [6]: One

Substance: insulin detemir
- HbA1c versus standard-of-care, physician-driven adjustments [7]: significantly lower HbA1c

Substance: insulin glargine
- End HbA1c [8]: 7.0%
